Measured values as given in publication PMC9037349, “Elucidation of molecular interactions of theaflavin monogallate with camel milk lactoferrin: detailed spectroscopic and dynamic simulation studies” (RSC Advances, 2021).

Target: T1, camel milk lactoferrin (Camelus dromedarius, UniProt Q9TUM0)
T1 construct: gene LTF; lactoferrin isolated and purified from camel milk
T1 sequence (Q9TUM0 20-708): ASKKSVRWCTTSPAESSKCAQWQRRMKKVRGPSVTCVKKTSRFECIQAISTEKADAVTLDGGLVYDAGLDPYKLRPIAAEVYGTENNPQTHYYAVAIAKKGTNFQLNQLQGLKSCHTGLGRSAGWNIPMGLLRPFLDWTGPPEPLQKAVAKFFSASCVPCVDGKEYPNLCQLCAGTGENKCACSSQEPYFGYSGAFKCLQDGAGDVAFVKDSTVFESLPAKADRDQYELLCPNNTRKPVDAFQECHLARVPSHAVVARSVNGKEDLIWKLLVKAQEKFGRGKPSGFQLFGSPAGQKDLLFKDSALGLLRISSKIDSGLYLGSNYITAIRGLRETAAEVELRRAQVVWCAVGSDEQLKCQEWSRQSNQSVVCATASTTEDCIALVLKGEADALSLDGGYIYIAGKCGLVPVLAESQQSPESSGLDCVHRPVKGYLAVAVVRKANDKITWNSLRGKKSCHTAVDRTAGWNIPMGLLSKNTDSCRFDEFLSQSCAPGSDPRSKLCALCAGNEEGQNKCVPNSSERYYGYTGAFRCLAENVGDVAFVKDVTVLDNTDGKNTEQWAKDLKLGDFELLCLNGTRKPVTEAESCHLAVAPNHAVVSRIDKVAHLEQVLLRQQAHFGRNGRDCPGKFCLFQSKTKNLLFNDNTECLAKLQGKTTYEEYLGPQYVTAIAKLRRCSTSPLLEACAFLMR
Experiment: intrinsic fluorescence quenching titration (static; modified Stern-Volmer, […] K), supported by FRET, ANS fluorescence and CD
Format: binding
Conditions: read-out: K a × 10^4 (M^-1) (converted)

O=C(O[C@@H]1Cc2c(O)cc(O)cc2O[C@@H]1c1cc(O)c(=O)c2c(O)c(O)cc([C@H]3Oc4cc(O)cc(O)c4C[C@H]3O)c2c1)c1cc(O)c(O)c(O)c1 [theaflavin monogallate]
Kd: 23.4 µM
